Paper PMC7287671, “Anticancer Ruthenium Complexes with HDAC Isoform Selectivity” (Molecules, 2020)

Tests used:
[1] = molecular target: T1, HDAC1 (Homo sapiens, UniProt Q13547); experiment: HDAC1 fluorimetric enzyme inhibition assay (BPS Bioscience kit); assay type: biochemical; settings: for Percentage HDAC1 activity: activity relative to control with no added inhibitor
T1 construct: FLAG; His; purchased BPS Bioscience
Description: (§1) These isoforms were chosen as they provide contrasting binding topographies, and HDAC6 in particular is closely linked with cancer metastasis (Figure 2).
(§2) 5. Enzyme Inhibition Assay
(§3) HDAC enzyme inhibition assays were carried out for as stated using commercially available assay kits (BPS Bioscience ) and undertaken in a 96 well plate. All measurements were carried out in triplicate and standard deviation errors are included in the plots. Human recombinant enzymes HDAC1 FLAG-tag His-tag and HDAC6 GST-tag were used. Potential inhibitors were dosed at the required concentration […]
(§4) NaCl, 2.7 mM KCl, 1 mM MgCl 2). A master mixture was made using assay buffer, acetylated substrate specific to HDAC enzyme (200 µM) and BSA (1 mg/mL) in a ratio of buffer:substrate:BSA (6:1:1) and 40 µL added to each well plate. Buffer (10 µL) was added to all blank wells and inhibitor (5 µL) was added to all potential inhibitor wells. HDAC enzymes were diluted based on their stated activity and 5 µL was added to all wells except blanks and the plate incubated at 37 °C for 30 min. Developer was added and the mixture incubated at room temperature for a further 15 min. Fluorescence was measured […]
(§5) Percentage HDAC activity is […]
(§6) determined by quantification of fluorescence relative to control, with no added inhibitor.
(§7) IC 50 values are calculated using least squares regression fitting to equation S2, where Y = calculated HDAC activity at given concentration, X = concentration of inhibitor, a = gradient scaling factor and SP = saturation point (i.e. 100% activity). Errors calculated using the formula for standard […]
(§8) Y = ୣ୶୮ (௔×(௑ିூ ఱబ)) × SP (S2)
(§9) All assays carried out in […]

[2] = molecular target: T2, HDAC6 (Homo sapiens, UniProt Q9UBN7); experiment: HDAC6 fluorimetric enzyme inhibition assay (BPS Bioscience kit); assay type: biochemical; settings: for Percentage HDAC6 activity: activity relative to control with no added inhibitor
T2 construct: GST; purchased BPS Bioscience
T2 sequence (Q9UBN7 1-1215): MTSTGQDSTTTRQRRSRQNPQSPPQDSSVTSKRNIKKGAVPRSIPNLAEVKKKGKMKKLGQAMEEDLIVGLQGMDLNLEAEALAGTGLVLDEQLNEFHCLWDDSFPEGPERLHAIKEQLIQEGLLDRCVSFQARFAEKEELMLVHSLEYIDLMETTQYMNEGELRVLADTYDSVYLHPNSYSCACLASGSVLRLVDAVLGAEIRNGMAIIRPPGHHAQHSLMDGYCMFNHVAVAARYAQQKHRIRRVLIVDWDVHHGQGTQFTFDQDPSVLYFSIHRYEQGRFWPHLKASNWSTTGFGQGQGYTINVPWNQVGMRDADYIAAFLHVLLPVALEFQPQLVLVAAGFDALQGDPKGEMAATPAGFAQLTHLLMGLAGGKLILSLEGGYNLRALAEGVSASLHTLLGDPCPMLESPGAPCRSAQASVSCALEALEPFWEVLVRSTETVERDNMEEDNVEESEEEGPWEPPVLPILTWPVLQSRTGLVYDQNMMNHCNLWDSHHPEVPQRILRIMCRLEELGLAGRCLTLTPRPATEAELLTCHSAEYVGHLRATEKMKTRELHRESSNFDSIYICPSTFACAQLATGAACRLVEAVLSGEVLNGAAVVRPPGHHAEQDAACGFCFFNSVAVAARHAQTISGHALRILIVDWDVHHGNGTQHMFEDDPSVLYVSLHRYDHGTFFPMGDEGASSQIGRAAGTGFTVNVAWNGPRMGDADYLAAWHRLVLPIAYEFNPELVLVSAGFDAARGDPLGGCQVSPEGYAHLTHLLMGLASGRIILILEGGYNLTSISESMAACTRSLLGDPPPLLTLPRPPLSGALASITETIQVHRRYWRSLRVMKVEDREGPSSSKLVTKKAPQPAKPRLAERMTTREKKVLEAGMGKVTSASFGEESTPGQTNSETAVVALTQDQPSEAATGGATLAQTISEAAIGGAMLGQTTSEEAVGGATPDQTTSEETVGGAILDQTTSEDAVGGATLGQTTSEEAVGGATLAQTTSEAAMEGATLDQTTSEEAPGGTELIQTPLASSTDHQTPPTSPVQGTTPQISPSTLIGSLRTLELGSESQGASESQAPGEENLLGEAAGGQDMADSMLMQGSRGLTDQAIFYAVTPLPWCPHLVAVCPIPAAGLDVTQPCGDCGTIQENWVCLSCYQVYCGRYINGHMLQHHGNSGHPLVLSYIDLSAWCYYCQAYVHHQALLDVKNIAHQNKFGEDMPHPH
Description: as §1, §2, §3, §4, §5, §6, §7, §8, §9

[3] = tested on: MCF7 human breast adenocarcinoma cell line; experiment: Cell viability assay (ChemoMetec Via1-Cassette); assay type: cell-based; settings: MCF7, 96 h, triplicate
Description: viable cells. The experiments were carried out in triplicate.

T1 sequence (Q13547 whole entry): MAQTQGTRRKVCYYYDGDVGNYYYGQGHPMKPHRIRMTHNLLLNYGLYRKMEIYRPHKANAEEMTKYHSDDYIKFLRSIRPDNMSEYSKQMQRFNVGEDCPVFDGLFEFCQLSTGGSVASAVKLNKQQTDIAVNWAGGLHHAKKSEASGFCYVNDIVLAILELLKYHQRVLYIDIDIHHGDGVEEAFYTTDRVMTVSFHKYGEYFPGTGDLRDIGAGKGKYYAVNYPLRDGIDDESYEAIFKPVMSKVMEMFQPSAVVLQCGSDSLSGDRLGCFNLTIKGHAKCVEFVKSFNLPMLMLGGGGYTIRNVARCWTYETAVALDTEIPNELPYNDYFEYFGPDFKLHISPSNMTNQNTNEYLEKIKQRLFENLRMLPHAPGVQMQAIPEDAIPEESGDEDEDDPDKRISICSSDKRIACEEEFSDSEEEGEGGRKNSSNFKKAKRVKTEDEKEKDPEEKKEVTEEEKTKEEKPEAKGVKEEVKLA

Structure (SMILES) | Percentage HDAC1 activity ([1]; 0.1 uM inhibitor) [%] | Percentage HDAC1 activity ([1]; 1 uM inhibitor) [%] | IC50 ([1]; human recombinant HDAC1 FLAG-tag His-tag, triplicate) [nM] | Percentage HDAC6 activity ([2]; 0.1 uM inhibitor) [%] | Percentage HDAC6 activity ([2]; 1 uM inhibitor) [%] | IC50 ([2]; human recombinant HDAC6 GST-tag, triplicate) [nM] | Selectivity Factor ([2]; ratio of the IC50 values for HDAC1 and HDAC6) | EC50 [3] [nM]
O=C(CCCCCCC(=O)Nc1cc2cccnc2c2ncccc12)NO [L^1] | 44 ± 7 | 6 ± 13 | 105 ± 15 | 17 ± 3 | 1.5 ± 1 | 41 ± 2 | 2.6 | 3000 ± 600
O=C(CCCCCCC(=O)Nc1ccccc1)NO [SAHA, suberanilohydroxamic acid, reference compound] | 70 ± 15 | 12 ± 7 | – | 22 ± 1 | 4 ± 2 | – | – | –
